Earlier results on 3 substances are cited in patent US8598236B2, “Emulsion system derived from engkabang fat esters” (Universiti Putra Malaysia, priority 2009, dated 2013).

For this data set the following is noted: purchased nonionic surfactants.

Take sorbitan monolaurate [Span20]: the HLB value is reported as 8.6. As for Sorbitan mono-oleate [Span80], the HLB value is 4.3. Regarding “polyoxyethylene (20) sorbitan tri-oleate [Tween85]”, the HLB value is reported as 11.0.
